The values below come from patent US20170253601A1, “Substituted Pyrrolidine Compounds” (EPIZYME, INC., priority 2014, published 2017).

Some results are limits rather than exact numbers.

T1 sequence (Q9NRG4 whole entry): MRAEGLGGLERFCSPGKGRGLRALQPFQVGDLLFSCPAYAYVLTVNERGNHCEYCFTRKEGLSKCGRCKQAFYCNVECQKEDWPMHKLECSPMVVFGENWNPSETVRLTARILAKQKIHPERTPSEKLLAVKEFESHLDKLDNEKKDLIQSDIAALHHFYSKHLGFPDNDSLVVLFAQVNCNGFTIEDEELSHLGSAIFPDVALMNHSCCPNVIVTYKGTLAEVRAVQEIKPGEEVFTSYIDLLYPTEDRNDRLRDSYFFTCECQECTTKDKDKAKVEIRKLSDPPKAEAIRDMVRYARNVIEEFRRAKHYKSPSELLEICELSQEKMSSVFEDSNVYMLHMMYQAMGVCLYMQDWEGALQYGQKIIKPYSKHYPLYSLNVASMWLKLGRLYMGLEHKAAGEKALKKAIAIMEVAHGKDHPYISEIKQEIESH

The first assay concerns the target T1, SMYD2 (Homo sapiens, UniProt Q9NRG4).
T1 construct: Full length SMYD2 (NP 064582.2) was cloned; His6 (N, cleaved yes); FLAG (N); made in house; host or cells: Sf9 insect cells
The experiment in a line: SMYD2 Biochemical Assay (3H-SAM, biotinylated peptide substrate, Flashplate). Conditions: IC50 values are an average of n = 1 to n = 50; read-out: SMYD2 Biochem IC50 (μM)*. Summed up:
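Methyltransferase activity tracked as 3H transfer from 10 nM 3H-SAM to 60 nM biotinylated peptide, counted after streptavidin Flashplate capture and normalised to DMSO and 1000 uM SAH controls. Enzyme: 1.5 nM full-length Sf9-expressed SMYD2, 30 min compound pre-incubation at room temperature, in Bicine pH 7.6 buffer with 2% DMSO; reactions quenched with 600 uM unlabelled SAM; IC50 from 3- or 4-parameter fit.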
Broadly, the IC50 is the concentration at which inhibition is half-maximal. Turning to `CC(C)c1cc(C(=O)N[C@@H]2CN(C(C)C)C[C@H]2C)no1` (racemic) [compound 192, (±)-trans-N-[4-methyl-1-(propan-2-yl)pyrrolidin-3-yl]-5-(propan-2-yl)-1,2-oxazole-3-carboxamide], the concentration for half-maximal inhibition (IC50) is greater than 50 µM.

Consider `CC(C)N1C[C@H](C)[C@H](NC(=O)c2cc(C3CN(C)C3)on2)C1` (racemic) [compound 343, (±)-cis-N-[4-methyl-1-(propan-2-yl)pyrrolidin-3-yl]-5-(1-methylazetidin-3-yl)-1,2-oxazole-3-carboxamide], for which the IC50 is greater than 50 µM.

Take `C[C@H]1CN(c2cnccn2)C[C@H]1NC(=O)c1cc(C2CC2)on1` (racemic) [compound 302, (±)-cis-5-cyclopropyl-N-[4-methyl-1-(pyrazin-2-yl)pyrrolidin-3-yl]-1,2-oxazole-3-carboxamide]: the IC50 is greater than 50 µM.

For the molecule `CC(=O)Nc1ccccc1N1C[C@H](C)[C@H](NC(=O)c2cc(C3CC3)on2)C1` (racemic) [compound 335, (±)-cis-5-cyclopropyl-N-[1-(2-acetamido-phenyl)-4-methylpyrrolidin-3-yl]-1,2-oxazole-3-carboxamide], the IC50 is greater than 50 µM.

Regarding `C[C@H]1CN(CC2CCCOC2)C[C@H]1NC(=O)c1cc(C2CC2)on1` (mixture of isomers) [compound 185, (±)-cis-5-cyclopropyl-N-[4-methyl-1-(oxan-3-ylmethyl)pyrrolidin-3-yl]-1,2-oxazole-3-carboxamide], the half-inhibitory concentration (IC50) was determined as 4.92 µM.

`CC(C)C[C@H]1CN(C(C)C)C[C@@H]1NC(=O)c1cc(C2CC2)on1` (racemic) [compound 154, (±)-trans-5-cyclopropyl-N-[4-(2-methylpropyl)-1-(propan-2-yl)pyrrolidin-3-yl]-1,2-oxazole-3-carboxamide]: the IC50 is greater than 50 µM.

With `C[C@@H]1CN(CC2CCCOC2)C[C@H]1NC(=O)c1cc(C2CC2)on1` (mixture of isomers) [compound 127, (±)-trans-5-cyclopropyl-N-[4-methyl-1-(oxan-3-ylmethyl)pyrrolidin-3-yl]-1,2-oxazole-3-carboxamide], the IC50 is greater than 50 µM.

Regarding `C[C@H]1CN(Cc2ccc(-c3cc(Cl)ccc3Cl)o2)C[C@H]1NC(=O)c1cc(C2CC2)on1` (racemic) [compound 198, (±)-cis-5-cyclopropyl-N-(1-{[5-(2,5-dichloro-phenyl)furan-2-yl]methyl}-4-methyl-pyrrolidin-3-yl)-1,2-oxazole-3-carboxamide], the IC50 is greater than 50 µM.

`C[C@H]1CN(c2ccccc2)C[C@H]1NC(=O)c1cc(C2CC2)on1` (racemic) [compound 272, (±)-cis-5-cyclopropyl-N-[4-methyl-1-phenylpyrrolidin-3-yl]-1,2-oxazole-3-carboxamide]: the IC50 was greater than 50 µM.

In the case of `CC(C)N1C[C@@H](C)[C@H](NC(=O)c2cc(C3CCC3)on2)C1` (racemic) [compound 249, (±)-trans-5-cyclobutyl-N-[4-methyl-1-(propan-2-yl)pyrrolidin-3-yl]-1,2-oxazole-3-carboxamide], the IC50 was greater than 50 µM.

For the molecule `CC(N1C[C@H](C)[C@H](NC(=O)c2cc(C3CC3)on2)C1)C(F)(F)F` (stereo in doubt) [compound 285, trans-5-cyclopropyl-N-[4-methyl-1-(1,1,1-trifluoropropan-2-yl)pyrrolidin-3-yl]-1,2-oxazole-3-carboxamide], the IC50 is greater than 50 µM.

With `CN1C[C@H](NC(=O)c2cc(C3CC3)on2)[C@H](C(C)(C)C)C1` (racemic) [compound 257, (±)-cis-N-[4-tert-butyl-1-methylpyrrolidin-3-yl]-5-cyclopropyl-1,2-oxazole-3-carboxamide], the IC50 was greater than 50 µM.

Take `C[C@H]1CN(Cc2ccc3c(c2)OCCO3)C[C@H]1NC(=O)c1cc(C2CC2)on1` (racemic) [compound 274, (±)-cis-5-cyclopropyl-N-[1-(2,3-dihydro-1,4-benzodioxin-6-ylmethyl)-4-methylpyrrolidin-3-yl]-1,2-oxazole-3-carboxamide]: the IC50 is 6.3 µM.

Consider `CC(C)N1C[C@H](C)[C@H](NC(=O)c2cc(C3CNC3)on2)C1` (racemic) [compound 342, (±)-cis-5-(azetidin-3-yl)-N-[4-methyl-1-(propan-2-yl)pyrrolidin-3-yl]-1,2-oxazole-3-carboxamide], for which the IC50 was greater than 50 µM.

For `COC(=O)CN1C[C@@H](C)[C@H](NC(=O)c2cc(C3CC3)on2)C1` (racemic) [compound 220, (±)-trans-methyl 2-[3-(5-cyclopropyl-1,2-oxazole-3-amido)-4-methylpyrrolidin-1-yl]acetate], the IC50 is greater than 50 µM.

Consider `C[C@@H]1CN(Cc2ccc(-c3cc(Cl)ccc3Cl)o2)C[C@H]1NC(=O)c1cc(C2CC2)on1` (racemic) [compound 171, (±)-trans-5-cyclopropyl-N-[1-{[5-(2,5-dichlorophenyl)furan-2-yl]methyl}-4-methylpyrrolidin-3-yl]-1,2-oxazole-3-carboxamide], for which the IC50 was greater than 50 µM.

For `CC(C)[C@H]1CN(C(C)C)C[C@H]1NC(=O)c1cc(C2CC2)on1` (racemic) [compound 219, (±)-cis-N-[1,4-bis(propan-2-yl)pyrrolidin-3-yl]-5-cyclopropyl-1,2-oxazole-3-carboxamide], the IC50 is greater than 50 µM.

On to `CC(C)N1C[C@H](NC(=O)c2cc(C3CC3)on2)C[C@H]1COCC#CC1CCCCC1` (stereo in doubt) [compound 244, (±)-trans-N-[5-{[(3-cyclo-hexylprop-2-yn-1-yl)oxy]methyl}-1-(propan-2-yl)pyrrolidin-3-yl]-5-cyclopropyl-1,2-oxazole-3-carboxamide], for which the IC50 is greater than 50 µM.

As for `C[C@H](c1ccccc1)N1C[C@@H](CO)[C@H](NC(=O)c2cc(C3CC3)on2)C1` [compound 119, 5-cyclopropyl-N-[(3S,4R)-4-(hydroxymethyl)-1-[(1R)-1-phenylethyl]pyrrolidin-3-yl]-1,2-oxazole-3-carboxamide], the IC50 was 38.2 µM.

With `COc1ccccc1N1C[C@H](C)[C@H](NC(=O)c2cc(C3CC3)on2)C1` (racemic) [compound 279, (±)-cis-5-cyclopropyl-N-[1-(2-methoxyphenyl)-4-methylpyrrolidin-3-yl]-1,2-oxazole-3-carboxamide], the IC50 is greater than 50 µM.

`C[C@H]1CN(C(CO)c2ccccc2)C[C@H]1NC(=O)c1cc(C2CC2)on1` (relative stereo) [compound 330, cis-5-cyclopropyl-N-[1-(2-hydroxy-1-phenylethyl)-4-methyl-pyrrolidin-3-yl]-1,2-oxazole-3-carboxamide]: the IC50 was 9.44 µM.

Take `C[C@@H]1CN(Cc2c[nH]c3ccccc23)C[C@H]1NC(=O)c1cc(C2CC2)on1` (racemic) [compound 160, (±)-trans-5-cyclopropyl-N-[1-(1H-indol-3-ylmethyl)-4-methyl-pyrrolidin-3-yl]-1,2-oxazole-3-carboxamide]: the IC50 was greater than 50 µM.

For the molecule `CC[C@H]1CN(C)C[C@H]1NC(=O)c1cc(C2CC2)on1` (racemic) [compound 187, (±)-cis-5-cyclopropyl-N-[4-ethyl-1-methyl-pyrrolidin-3-yl]-1,2-oxazole-3-carboxamide], the IC50 amounted to 18.1 µM.

Turning to `COc1ccc(CN2C[C@@H](C)[C@H](NC(=O)c3cc(C4CC4)on3)C2)c(OC)c1` (racemic) [compound 134, (±)-trans--cyclopropyl-N-[1-[(2,4-dimethoxy-phenyl)methyl]-4-methylpyrrolidin-3-yl]-1,2-oxazole-3-carboxamide], the concentration for half-maximal inhibition (IC50) is greater than 50 µM.

For `C[C@@H]1CN(CC2CCOC2)C[C@H]1NC(=O)c1cc(C2CC2)on1` (mixture of isomers) [compound 137, (±)-trans-5-cyclopropyl-N-[4-methyl-1-(oxolan-3-ylmethyl)pyrrolidin-3-yl]-1,2-oxazole-3-carboxamide], the IC50 was greater than 50 µM.

Regarding `CC(c1ccccc1)N1C[C@H](C)[C@H](NC(=O)c2cc(C3CC3)on2)C1` (mixture of isomers) [compound 317, (±)-cis-5-cyclopropyl-N-[4-methyl-1-(1-phenyl-ethyl)pyrrolidin-3-yl]-1,2-oxazole-3-carboxamide], the IC50 was determined as 1.14 µM.

Still in this assay, the particulars now being: Table 1; average of n = 1 to n = 50; read-out: SMYD2 Biochem IC50.
`CC(C)N1C[C@@H](C)[C@H](NC(=O)c2cc(C3CC3)on2)C1` [compound 41, 5-cyclopropyl-N-((3S,4R)-1-isopropyl-4-methylpyrrolidin-3-yl)isoxazole-3-carboxamide]: the IC50 is 18.2 µM.

Consider `CN1C[C@@H](O)[C@H](NC(=O)c2cc(C3CC3)on2)C1` (racemic) [compound 40, (±)-trans-5-cyclopropyl-N-(-4-hydroxy-1-methylpyrrolidin-3-yl)isoxazole-3-carboxamide], for which the IC50 is greater than 50 µM.

Still in this assay, the particulars now being: Table 2; average of n = 1 to n = 50; read-out: SMYD2 Biochem IC50.
As for `C[C@@H]1CN(Cc2ccncc2)C[C@H]1NC(=O)c1cc(C2CC2)on1` (racemic) [compound 85, (±)-trans-5-cyclopropyl-N-(4-methyl-1-(pyridin-4-ylmethyl)pyrrolidin-3-yl)isoxazole-3-carboxamide], the IC50 is greater than 50 µM.

For `C[C@@H]1CN(C2CCOCC2)C[C@H]1NC(=O)c1cc(C2CC2)on1` (racemic) [compound 97, (±)-trans-5-cyclopropyl-N-(4-methyl-1-(tetrahydro-2H-pyran-4-yl)pyrrolidin-3-yl)isoxazole-3-carboxamide], the IC50 was greater than 50 µM.

As for `C[C@@H]1CN(C2CCCCC2)C[C@H]1NC(=O)c1cc(C2CC2)on1` (racemic) [compound 96, (±)-trans-N-(1-cyclohexyl-4-methylpyrrolidin-3-yl)-5-cyclopropylisoxazole-3-carboxamide], the IC50 is greater than 50 µM.
